Laboratory results taken from patent US20080038374A1, “New Use” (Lipopeptide AB, priority 2004, published 2008).

Key:
hCAP18 = hCAP18 mRNA in acute surgical wounds of healthy volunteers, Real-Time RT-PCR; assay type: in vivo, human; settings: topical, 24 h, nine probands, relative to vaseline control wound
Protocol: To assess whether treatment with a vitamin D compound can further enhance the up-regulation of hCAP18 during acute skin injury, fresh surgical wounds in healthy volunteers (n=9) were treated with vitamin D ointment.
(§1) The investigation was non-randomized, single blinded including four females and five males, age 22-30 years. Only fair skinned, young and healthy individuals were included and the tissue was obtained from the same body location in a non-sun exposed area. Each individual obtained 3 wounds in the left and the right inguinal region, respectively. The topical treatment with vitamin D was applied on one side and the control treatment on the contra lateral side. To each of the wounds on one side, 25 μg calcipotriol in 0.5 g ointment (Daivonex, LEO Pharma, Malmo, Sweden) was applied to a total test area of 2×2.25 cm, including one wound with surrounding intact skin. The control wounds in the opposite inguinal region were treated with vaseline (ACO, Stockholm, Sweden). All wounds were covered with inert dressing (Melolin, Smith and Nephew, Hull, U K; Mefix, Molnlycke A B, Gothenburg, Sweden; Tegaderm, 3M Health Care, St. Paul, USA). After 12 hours the dressing was changed and the treatment was repeated. […]
Expression of hCAP18 mRNA was quantified by Real-Time PCR, as described in Example 1. […]

hCAP18/LL-37 = test: hCAP18 and LL-37 protein in acute wounds, Western blot; assay type: in vivo, human
Description: as §1, with “repeated. In the first four individuals investigated the bandage was removed at 24 hours and the wounds were excised with a 6 mm biopsy punch and snap frozen.” for “repeated.”
Protein was calculated from frozen biopsies from patients (n=5) cut in 50 μm sections and homogenized. […] Protein concentrations were measured by Protein Assay Kit (Bio-Rad Laboratories, Hercules, USA) based on the Bradford method (Bradford 1976). […]

C=C1/C(=C\C=C2/CCC[C@]3(C)[C@@H]([C@H](C)/C=C/[C@@H](O)C4CC4)CC[C@@H]23)C[C@@H](O)C[C@@H]1O [calcipotriol]
up-regulation of hCAP18 mRNA in acute wounds (hCAP18): enhances the up-regulation of hCAP18 mRNA | immunoreactive bands of the processed peptide LL-37 versus control wounds (hCAP18/LL-37): in all three individuals, stronger immunoreactive bands | immunoreactive bands of the 18 kDa hCAP18 holoprotein versus control wounds (hCAP18/LL-37; 24 and 48 hours, five individuals): three of the five individuals investigated demonstrated stronger immunoreactive bands
